This is an account of results in publication PMC3070360 (Journal of natural products, 2011).

One series has as its system MDA-MB-231. Kind of series: NCI-DTP 60 cell line screen, MDA-MB-231. It is filed as cell-based. Conditions: read-out: GI50 MDA-MB-231, data provided by NCI-DTP, NA=not active.
The subject of another series is HCT-116. Kind of series: NCI-DTP 60 cell line screen, HCT-116. Conditions: read-out: GI50 HCT-116, data provided by NCI-DTP, NA=not active. It is filed as cell-based.
A further series concerns IGROV-1. Description: NCI 60 cell line screen, IGROV-1. Conditions: read-out: GI50 IGROV-1, IGROV-1, Ovarian. It counts as cell-based, human.
The subject of a further series is DU-145. Description: NCI 60 cell line screen, DU-145. Conditions: read-out: GI50 DU-145, DU-145, Prostate. It counts as cell-based.
In a further series the test system is NCI 60 cell lines. Description: NCI 60 cell line screen, single dose and overall cytotoxicity. It counts as cell-based.
For a further series, the system named is U25-1. Description: NCI 60 cell line screen, U25-1. It is filed as cell-based. Conditions: read-out: GI50 U25-1, U25-1, CNS.
A further series deals with NCI-H522. Kind of series: NCI 60 cell line screen, NCI-H522. It counts as cell-based. Conditions: read-out: GI50 NCI-H522, NCI-H522, Lung.
For another series, the system named is LOX-IMVI. Description: NCI 60 cell line screen, LOX-IMVI. Conditions: read-out: GI50 LOX-IMVI, Melanoma. It counts as cell-based, human.
Another series deals with A498. Description: NCI 60 cell line screen, A498. Conditions: read-out: GI50 A498, A498, Renal. It counts as cell-based, human.
A further series deals with PC-3. The conditions noted are these: read-out: GI50 PC-3; human prostate carcinoma cell line PC-3; cited from earlier work.
The subject of the next series is HCT-116 cells. Description: Clonogenic dose-response analysis. It is filed as cell-based.
In another series the test system is LnCap. Conditions: read-out: GI50 LnCap; human prostate carcinoma cell line LnCap; cited from earlier work.
Another series relates to TSU-Pr1. The conditions noted are these: read-out: GI50 TSU-Pr1; human prostate carcinoma cell line TSU-Pr1; cited from earlier work.

With “jasplakinolide B [Compound 3, reference compound]”, the GI50 in the series on MDA-MB-231 is 0.04 µM.
Turning to jasplakinolide J [Compound 5], the GI50 with HCT-116 was found to be 0.11 µM; in the series on IGROV-1, 0.02 µM; in the series with DU-145 it was 0.29 µM; with MDA-MB-231, 0.26 µM; in the series on U25-1, 0.05 µM; in the series with NCI-H522, 0.61 µM. Also, the GI50 is 0.03 µM in the series on LOX-IMVI and 0.21 µM with A498. In addition, the “Diminished cytotoxicity (summary in the conclusions)” value in the series on NCI 60 cell lines is recorded as “≈ 1 uM”.
As to (+)-jasplakinolide Z3 [Compound 11], the GI50 stood at 0.17 µM with IGROV-1; 3.72 µM with DU-145; 0.74 µM with MDA-MB-231; 0.05 µM with U25-1; 0.04 µM in the series with NCI-H522; 0.16 µM in the series on LOX-IMVI. The GI50 in the series on A498 was 0.44 µM.
On to (+)-jasplakinolide V [Compound 13], for which the GI50 in the series on HCT-116 amounted to 0.07 µM; in the series on IGROV-1 it was 0.03 µM; in the series with DU-145 it was 0.08 µM; in the series with MDA-MB-231 it was 0.09 µM; in the series with U25-1, 0.04 µM; in the series on NCI-H522, 0.06 µM. For the same substance, the GI50 in the series with LOX-IMVI was 0.007 µM; with A498 it was 0.01 µM.
With (+)-jasplakinolide Z1 [Compound 9], the GI50 in the series on IGROV-1 stood at 1.76 µM; in the series on DU-145 it was 18.8 µM; with MDA-MB-231 it was 2.5 µM; in the series with U25-1, 0.6 µM; with NCI-H522 it was 0.12 µM; in the series on LOX-IMVI, 0.28 µM.
As for jasplakinolide [Compound 1], the GI50 is 0.065 µM in the series on PC-3, 0.041 µM in the series on LnCap and 0.17 µM in the series with TSU-Pr1. Also, the “Concentration achieving the desired therapeutic effect (90% kill of tumor cells)” value in the series with HCT-116 cells (HCT-116, clonogenic, continuous exposure for seven days) came out at 0.004 µM. Also, in the series on HCT-116 cells (two hour and 24 hour dosing schedules), the “Toxicity to HCT-116 cells in the clonogenic assay” value is listed as “Little toxicity”.
Consider jasplakinolide Q [Compound 7], for which the GI50 was 0.05 µM in the series on HCT-116; 0.01 µM with IGROV-1; 0.1 µM with DU-145; 0.07 µM in the series with MDA-MB-231; 0.03 µM in the series with U25-1; 0.16 µM in the series with NCI-H522. Further, the GI50 in the series on LOX-IMVI was 0.02 µM; in the series on A498, 0.08 µM.
